Data reported in patent publication US7132449B2, “Inhibitors of cruzipain and other cysteine proteases” (Amura Therapeutics Limited, priority 2001, dated 2006).

What was measured:
Cruzipain = Cruzipain (Trypanosoma cruzi, UniProt P25779); experiment: Trypanosoma cruzi cruzipain peptidase activity assay (Ki); assay type: biochemical; details: wild-type cruzipain from Trypanosoma cruzi Dm28 epimastigotes, pH 6.75, 25±1° C.
Protocol: (§1) Assay protocols were based on literature precedent (Table 1; Barrett, A. J., Rawlings, N. D. and Woessner, J. F., 1998, Handbook of Proteolytic Enzymes, Academic Press, London and references therein) and modified as required to suit local assay protocols. Enzyme was added as required to initiate the reaction and the activity, as judged by the change in fluorescence upon conversion of substrate to product, was monitored over time. All assays were carried out at 25±1° C.
Wild-type cruzipain, derived from Trypanosoma cruzi Dm28 epimastigotes, was obtained from Dr. Julio Scharfstein (Instituto de Biofisica Carlos Chagas Filho, Universidade Federal do Rio de Janeiro, R10 de Janeiro, Brazil). Activity assays were carried out in 100 mM sodium phosphate, pH 6.75 containing 1 mM EDTA and 10 mM L-cysteine using 2.5 nM enzyme. Ac-Phe-Arg-AMC (KM^app≈12 μM) and D-Val-Leu-Lys-AMC (KM^app≈4 μM) were used as the substrates. Routinely, Ac-FR-AMC was used at a concentration equivalent to KM^app and D-Val-Leu-Lys-AMC was used at a concentration of 25 μM. The rate of conversion of substrate to product was derived from the slope of the increase in fluorescence monitored continuously over time.
(§2) The apparent inhibition constant (Ki) for each compound was determined on the basis that inhibition was reversible and occurred by a pure-competitive mechanism. The Ki values were calculated, from the dependence of enzyme activity as a function of inhibitor concentration, by direct regression analysis (Prism v 3.02) using Equation 2 (Cornish-Bowden, A., 1995.).
(§3) In situations where the apparent dissociation constant (Ki^app) approached the enzyme concentrations, the Ki^app values were calculated using a quadratic solution in the form described by Equation 3 (Morrison, J. F. Trends Biochem. Sci., 7, 102–105, 1982; Morrison, J. F. Biochim. Biophys. Acta, 185, 269–286, 1969; Stone, S. R. and Hofsteenge, J. Biochemistry, 25, 4622–4628, 1986).

Bovine Cathepsin S = molecular target: T1, Bovine Cathepsin S (Bos taurus, UniProt P25326); experiment: Cathepsin peptidase activity assay, bovine cathepsin S (Ki); assay type: biochemical; details: pH 6.5, 25±1° C.
T1 construct: purchased CN Biosciences
Protocol: as §1
(§4) Bovine cathepsin S, human cathepsin L, human cathepsin H and human cathepsin B were obtained from CN Biosciences. Recombinant human cathepsin S, human cathepsin K and human cathepsin X were obtained from Dr. Boris Turk (Josef Stefan Institute, Ljubljana, Slovenia). Unless otherwise stated, all peptidase activity assays were carried out in 10 mM bis-tris-propane (BTP), pH 6.5 containing 1 mM EDTA, 5 mM 2-mercaptoethanol and 1 mM CaCl2. Human cathepsin H activity assays were carried out in 10 mM BTP pH 6.5, 142 mM […], 1 mM CaCl2, 1 mM EDTA, 1 mM DTT, 0.035 mM Zwittergent 3–16. Human cathepsin K assays were carried out in 100 mM sodium acetate; pH 5.5 containing 20 mM L-cysteine and 1 mM EDTA (Bossard, M. J., et. al., J. Biol. Chem., […], 12517–12524, 1996). […] The final enzyme concentrations used in the assays were 0.5 nM bovine cathepsin S, 1 nM cathepsin L, 0.1 nM cathepsin B, 0.25 nM Cathepsin K; 1 nM cathepsin X and 10 nM cathepsin H. For the inhibition assays, the substrates used for cathepsin S, cathepsin L, cathepsin B, cathepsin K and cathepsin H were boc-Val-Leu-Lys-AMC (KM^app≈30 μM, Ac-Phe-Arg-AMC (KMaPP 20 EM), Z-Phe-Arg-AMC (KM^app≈40 μM), Z-Leu-Arg-AMC (KM^app≈2 μM); Bz-Phe-Val-Arg-AMC (KM^app≈150 μM) respectively. In each case the substrate concentration used in each assay was equivalent to the KM^app. The rate of conversion of substrate to product was derived from the slope of the increase in fluorescence monitored continuously over time.
as §2, §3

Human Cathepsin L = molecular target: T2, Human Cathepsin L (Homo sapiens, UniProt P07711); experiment: Cathepsin peptidase activity assay, human cathepsin L (Ki); assay type: biochemical; details: pH 6.5, 25±1° C.
T2 construct: purchased CN Biosciences
Protocol: as §1, §4, §2, §3

Human Cathepsin K = molecular target: T3, Human Cathepsin K (Homo sapiens, UniProt P43235); experiment: Cathepsin peptidase activity assay, human cathepsin K (Ki); assay type: biochemical; details: pH 5.5, 25±1° C.
T3 construct: Dr. Boris Turk (Josef Stefan Institute, Ljubljana, Slovenia)
T3 sequence (P43235 115-329): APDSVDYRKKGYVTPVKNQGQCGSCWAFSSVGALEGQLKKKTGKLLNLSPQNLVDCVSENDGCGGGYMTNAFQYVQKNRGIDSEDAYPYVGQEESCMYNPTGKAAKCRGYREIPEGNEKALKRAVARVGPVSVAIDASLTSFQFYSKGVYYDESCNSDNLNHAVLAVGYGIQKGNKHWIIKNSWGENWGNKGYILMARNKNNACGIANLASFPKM
Protocol: as §1, §4, §2, §3

[1] = test system: Trypanosoma cruzi-infected mammalian cell cultures; details: added to Trypanosoma cruzi-infected mammalian cell cultures; cited from earlier work
[2] = test system: Trypanosoma cruzi infection; details: during the acute phase of infection; cited from earlier work

Cruzipain, sequence (P25779 whole entry): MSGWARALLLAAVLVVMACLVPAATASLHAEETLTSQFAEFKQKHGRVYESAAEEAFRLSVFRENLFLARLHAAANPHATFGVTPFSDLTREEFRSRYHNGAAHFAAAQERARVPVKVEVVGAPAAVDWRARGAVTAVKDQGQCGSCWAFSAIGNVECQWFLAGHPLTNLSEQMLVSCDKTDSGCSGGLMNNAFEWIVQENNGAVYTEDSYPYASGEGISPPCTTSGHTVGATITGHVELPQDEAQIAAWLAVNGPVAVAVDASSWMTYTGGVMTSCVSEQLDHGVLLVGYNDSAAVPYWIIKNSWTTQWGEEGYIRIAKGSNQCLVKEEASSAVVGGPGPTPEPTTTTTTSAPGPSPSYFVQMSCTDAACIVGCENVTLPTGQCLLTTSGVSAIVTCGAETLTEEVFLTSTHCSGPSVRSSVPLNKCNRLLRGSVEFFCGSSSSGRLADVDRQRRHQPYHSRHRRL
T1 sequence (P25326 115-331): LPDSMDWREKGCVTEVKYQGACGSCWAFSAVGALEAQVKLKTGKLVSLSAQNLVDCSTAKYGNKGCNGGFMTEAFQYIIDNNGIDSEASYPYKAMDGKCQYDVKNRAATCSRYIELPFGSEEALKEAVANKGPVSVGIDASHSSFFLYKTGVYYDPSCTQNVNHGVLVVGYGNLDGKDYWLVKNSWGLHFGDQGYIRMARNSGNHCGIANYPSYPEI
T2 sequence (P07711 114-333): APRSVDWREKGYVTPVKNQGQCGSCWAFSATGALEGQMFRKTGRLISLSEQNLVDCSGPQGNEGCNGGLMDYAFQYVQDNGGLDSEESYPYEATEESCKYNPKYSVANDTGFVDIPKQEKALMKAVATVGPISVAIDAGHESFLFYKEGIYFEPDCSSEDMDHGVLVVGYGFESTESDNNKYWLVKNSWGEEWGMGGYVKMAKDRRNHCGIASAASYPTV

| Ki (Cruzipain) | Ki (Bovine Cathepsin S) | Ki (Human Cathepsin L) | Ki (Human Cathepsin K) | Structure (SMILES) | effect on replication and differentiation of the parasite [1] | cure [2] |
| --- | --- | --- | --- | --- | --- | --- |
| > 10 µM | > 20 µM | > 5 µM | < 1 µM | CC(C)CC(C(=O)N[C@H]1C(=O)CO[C@@H]1C)c1cccc(-c2ccccc2)c1 (mixture of isomers) [Example 46, (2R, 3R) 2-Biphenyl-3-yl-4-methyl-pentanoic acid (2-methyl-4-oxo-tetrahydrofuran-3-yl)-amide] |  |  |
| > 100 µM | > 100 µM | < 10 µM | > 100 µM | C[C@H]1OCC(=O)[C@H]1NC(=O)[C@H](Cc1ccccc1)OCc1cccc2ccccc12 (racemic) [Example 49] |  |  |
| > 100 µM | < 10 µM | > 100 µM | > 100 µM | C[C@@H]1OCC(=O)[C@H]1NC(=O)[C@H](CC1CCCCC1)SCc1ccco1 [Example 4, (2S, 3S) 3-Cyclohexyl-2-(furan-2-ylmethylsulfanyl)-N-(2-methyl-4-oxo-tetrahydrofuran-3-yl)-propionamide] |  |  |
| < 5 µM | > 50 µM | > 100 µM | > 5 µM | CC(C)C[C@H](CC(=O)n1ccc(-c2ccccc2)c1)C(=O)N[C@@H]1C(=O)CO[C@@H]1C [Example 22, (2R, 3S) 4-Methyl-2-[2-oxo-2-(3-phenyl-pyrrol-1-yl)-ethyl]-pentanoic acid (2-methyl-4-oxo-tetrahydrofuran-3-yl)-amide] |  |  |
|  |  |  |  | CC(NC(=O)C(Cc1ccccc1)NC(=O)OCc1ccccc1)C(=O)CF (stereo not drawn) [Z-Phe-Ala-FMK] | blocked replication and differentiation of the parasite |  |
|  |  |  |  | O=C(Cn1ccnc1[N+](=O)[O-])NCc1ccccc1 [benznidazole] |  | ~60% |
